From patent US9198433B2, “Substituted benzene fungicides” (E I DU PONT DE NEMOURS AND COMPANY, priority 2007, dated 2015)
Like-named read-outs stand apart in the source and are kept apart here. Marks after values point to notes of the source that are not given here.

What was measured:
Type in all cases: in vivo
[1] = test system: Erysiphe graminis f. sp. tritici; assay: Test A: wheat powdery mildew, preventive spray on wheat seedlings, disease rating
In short: (§1)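 Compounds were dissolved in acetone (3% of final volume), then suspended in 50/50 acetone/water with 250 ppm polyhydric alcohol ester surfactant and sprayed to run-off on wheat seedlings. Unless marked otherwise, values are at 200 ppm (equivalent to 500 g/ha); some are at 40 or 50 ppm.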

[2] = test system: Puccinia recondita f. sp. tritici; assay: Test B: wheat leaf rust, preventive spray on wheat seedlings, disease rating
In short: as §1

Septoria nodorum = assay: Test C: wheat glume blotch, preventive spray on wheat seedlings, disease rating
In short: as §1

Fusarium graminearum = details: wheat head scab
Botrytis cinerea = assay: Test F: tomato Botrytis, preventive spray on tomato seedlings, disease rating
In short: (§2)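 Tomato seedlings sprayed to run-off, as a preventive treatment, with compound suspended in acetone/water (50/50) containing 250 ppm Trem 014 surfactant; 200 ppm equals 500 g/ha. Disease then rated. Values are at 200 ppm unless marked * (40 ppm) or ** (50 ppm).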

Alternaria solani = assay: Test H: tomato early blight, preventive spray on tomato seedlings, disease rating
In short: as §2

Rhizoctonia oryzae = assay: Test I: turf brown patch, preventive spray on creeping bent grass seedlings, disease rating
From the text: The test compounds were first dissolved in acetone in an amount equal to 3% of the final volume and then suspended at the desired concentration (in ppm) in acetone and purified water (50/50 mix) containing 250 ppm of the surfactant Trem® 014 (polyhydric alcohol esters). The resulting test suspensions were then used in Tests A-L. Spraying a 200 ppm test suspension to the point of run-off on the test plants was the equivalent of an application rate of 500 g/ha. The test suspension was sprayed to the point of run-off on creeping bent grass seedlings. […] A dash (-) indicates no test results. All results are for 200 ppm except where followed by an “*”, which indicates 40 ppm or “**”, which indicates 50 ppm.

Phytophthora infestans = details: tomato late blight
Plasmopara viticola = assay: Test K: grape downy mildew, spray on grape seedlings after inoculation, disease rating
From the text: The test compounds were first dissolved in acetone in an amount equal to 3% of the final volume and then suspended at the desired concentration (in ppm) in acetone and purified water (50/50 mix) containing 250 ppm of the surfactant Trem® 014 (polyhydric alcohol esters). The resulting test suspensions were then used in Tests A-L. Spraying a 200 ppm test suspension to the point of run-off on the test plants was the equivalent of an application rate of 500 g/ha. Grape seedlings were inoculated with a spore suspension of Plasmopara viticola (the causal agent of grape downy mildew) and incubated in a saturated atmosphere at 20° C. for 24 h. After a short drying period, the test suspension was sprayed to the point of run-off on the grape seedlings and then moved to a growth chamber at 20° C. for 6 days, after which the test units were placed back into a saturated atmosphere at 20° C. for 24 h. Upon removal, disease ratings were made. […] A dash (-) indicates no test results. All results are for 200 ppm except where followed by an “*”, which indicates 40 ppm or “**”, which indicates 50 ppm.

Septoria tritici = assay: Test D: wheat leaf blotch, preventive spray on wheat seedlings, disease rating
In short: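 Wheat seedlings sprayed to run-off with compound in acetone/water containing 250 ppm Trem 014 (200 ppm ≈ 500 g/ha; some results at 40 or 50 ppm), inoculated next day with Septoria tritici spores. Held 48 h saturated at 24 °C, then 19 days at 20 °C before disease rating.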

Pythium aphanidermatum = assay: Test L: bluegrass pythium blight, preventive spray on bluegrass seedlings, disease rating
From the text: The test compounds were first dissolved in acetone in an amount equal to 3% of the final volume and then suspended at the desired concentration (in ppm) in acetone and purified water (50/50 mix) containing 250 ppm of the surfactant Trem® 014 (polyhydric alcohol esters). The resulting test suspensions were then used in Tests A-L. Spraying a 200 ppm test suspension to the point of run-off on the test plants was the equivalent of an application rate of 500 g/ha. The test suspension was sprayed to the point of run-off on bluegrass seedlings. […] A dash (-) indicates no test results. All results are for 200 ppm except where followed by an “*”, which indicates 40 ppm or “**”, which indicates 50 ppm.

[3] = 200 ppm, 100 = 100% disease control, 0 = no control relative to controls
[4] = 40 ppm (*), 100 = 100% disease control, 0 = no control relative to controls

With `C#CCCCn1ccc(-c2ccc(Cl)c(CNC(=O)OC)c2)n1` [Cmpd 24] the “Percentage Disease Control, Test A” value ([1]; 40 ppm (*)) was 96* %, the “Percentage Disease Control, Test B” value ([2]; 40 ppm (*)) was 99* % and the “Percentage Disease Control, Test C” value (Septoria nodorum; 40 ppm (*)) was 99* %. For the same compound, the “Percentage Disease Control, Test E” value (Fusarium graminearum; 40 ppm (*)) was 96* %, the “Percentage Disease Control, Test F” value (Botrytis cinerea; 200 ppm) was 0% and the “Percentage Disease Control, Test H” value (Alternaria solani; 200 ppm) was 0%. For the same compound, the “Percentage Disease Control, Test I” value (Rhizoctonia oryzae; 200 ppm) was 0%, the “Percentage Disease Control, Test J” value (Phytophthora infestans; 40 ppm (*)) was 0* % and the “Percentage Disease Control, Test K” value (Plasmopara viticola; 200 ppm) was 83%.

With `COC(=O)NCc1cc(-c2ccn(C(C)[Si](C)(C)C)n2)ccc1Cl` (centres unmarked) [Cmpd 29] the “Percentage Disease Control, Test A” value ([1]; 50 ppm (**)) was 78** %, the “Percentage Disease Control, Test B” value ([2]; 50 ppm (**)) was 98** % and the “Percentage Disease Control, Test C” value (Septoria nodorum; 50 ppm (**)) was 82** %. The “Percentage Disease Control, Test D” value (Septoria tritici; 50 ppm (**)) was 96** %, the “Percentage Disease Control, Test F” value (Botrytis cinerea; 50 ppm (**)) was 0** % and the “Percentage Disease Control, Test H” value (Alternaria solani; 50 ppm (**)) was 67** %. The “Percentage Disease Control, Test I” value (Rhizoctonia oryzae; 50 ppm (**)) was 0** %, the “Percentage Disease Control, Test J” value (Phytophthora infestans; 50 ppm (**)) was 0** % and the “Percentage Disease Control, Test K” value (Plasmopara viticola; 50 ppm (**)) was 27** %. For the same compound, the “Percentage Disease Control, Test L” value (Pythium aphanidermatum; 50 ppm (**)) was 0** %.

`COC(=O)NCc1cc(-c2ccn(CCC=C(C)C)n2)ccc1Cl` [Cmpd 30] was tested, and the “Percentage Disease Control, Test A” value ([1]; 200 ppm) was 83%, the “Percentage Disease Control, Test B” value ([2]; 200 ppm) was 98% and the “Percentage Disease Control, Test C” value (Septoria nodorum; 200 ppm) was 73%. For the same compound, the “Percentage Disease Control, Test D” value (Septoria tritici; 200 ppm) was 90%, the “Percentage Disease Control, Test F” value (Botrytis cinerea; 200 ppm) was 0% and the “Percentage Disease Control, Test H” value (Alternaria solani; 200 ppm) was 0%. For the same compound, the “Percentage Disease Control, Test I” value (Rhizoctonia oryzae; 200 ppm) was 0%, the “Percentage Disease Control, Test J” value (Phytophthora infestans; 200 ppm) was 0% and the “Percentage Disease Control, Test K” value (Plasmopara viticola; 200 ppm) was 74%. For the same compound, the “Percentage Disease Control, Test L” value (Pythium aphanidermatum; 200 ppm) was 0%.

For `COC(=O)NCc1cc(-c2ccn(CCC#N)n2)ccc1Cl` [Cmpd 31], the “Percentage Disease Control, Test A” value ([1]; 40 ppm (*)) was 0* %, the “Percentage Disease Control, Test B” value ([2]; 40 ppm (*)) was 0* % and the “Percentage Disease Control, Test C” value (Septoria nodorum; 40 ppm (*)) was 0* %. For the same compound, the “Percentage Disease Control, Test D” value (Septoria tritici; 40 ppm (*)) was 69* %, the “Percentage Disease Control, Test F” value (Botrytis cinerea; 40 ppm (*)) was 0* % and the “Percentage Disease Control, Test H” value (Alternaria solani; 40 ppm (*)) was 0* %. The “Percentage Disease Control, Test I” value (Rhizoctonia oryzae; 40 ppm (*)) was 0* %, the “Percentage Disease Control, Test J” value (Phytophthora infestans; 40 ppm (*)) was 0* % and the “Percentage Disease Control, Test K” value (Plasmopara viticola; 40 ppm (*)) was 20* %. The “Percentage Disease Control, Test L” value (Pythium aphanidermatum; 40 ppm (*)) was 0* %.

With `COC(=O)NCc1cc(-c2ccn(CCCC#N)n2)ccc1Cl` [Cmpd 32] the “Percentage Disease Control, Test A” value ([1]; 200 ppm) was 41%, the “Percentage Disease Control, Test B” value ([2]; 200 ppm) was 80% and the “Percentage Disease Control, Test C” value (Septoria nodorum; 200 ppm) was 0%. For the same compound, the “Percentage Disease Control, Test D” value (Septoria tritici; 200 ppm) was 88%, the “Percentage Disease Control, Test F” value (Botrytis cinerea; 200 ppm) was 0% and the “Percentage Disease Control, Test H” value (Alternaria solani; 200 ppm) was 0%. The “Percentage Disease Control, Test I” value (Rhizoctonia oryzae; 200 ppm) was 0%, the “Percentage Disease Control, Test J” value (Phytophthora infestans; 200 ppm) was 0% and the “Percentage Disease Control, Test K” value (Plasmopara viticola; 200 ppm) was 34%. For the same compound, the “Percentage Disease Control, Test L” value (Pythium aphanidermatum; 200 ppm) was 0%.

`COC(=O)NCc1cc(-c2ccn(-c3cccc(C)n3)n2)ccc1Cl` [Cmpd 49] was tested, and the “Percentage Disease Control, Test A” value ([1]; 200 ppm) was 79%, the “Percentage Disease Control, Test B” value ([2]; 40 ppm (*)) was 100* % and the “Percentage Disease Control, Test C” value (Septoria nodorum; 200 ppm) was 99%. For the same compound, the “Percentage Disease Control, Test D” value (Septoria tritici; 40 ppm (*)) was 100* %, the “Percentage Disease Control, Test E” value (Fusarium graminearum; 40 ppm (*)) was 99* % and the “Percentage Disease Control, Test F” value (Botrytis cinerea; 200 ppm) was 0%. The “Percentage Disease Control, Test H” value (Alternaria solani; 40 ppm (*)) was 99* %.

In the case of `COC(=O)NCc1cc(-c2ccn(-c3cccc(C(F)(F)F)c3)n2)ccc1Cl` [Cmpd 50], the “Percentage Disease Control, Test A” value ([1]; 40 ppm (*)) was 100* %, the “Percentage Disease Control, Test B” value ([2]; 40 ppm (*)) was 99* % and the “Percentage Disease Control, Test C” value (Septoria nodorum; 40 ppm (*)) was 100* %. The “Percentage Disease Control, Test D” value (Septoria tritici; 40 ppm (*)) was 100* %, the “Percentage Disease Control, Test E” value (Fusarium graminearum; 40 ppm (*)) was 97* % and the “Percentage Disease Control, Test F” value (Botrytis cinerea; 200 ppm) was 0%. For the same compound, the “Percentage Disease Control, Test H” value (Alternaria solani; 200 ppm) was 55%.

For `COC(=O)NCc1cc(-c2cnn(CCC[Si](C)(C)C)c2)ccc1Cl` [Cmpd 126], the “Percentage Disease Control, Test A” value [1, 3] was 95%, the “Percentage Disease Control, Test B” value [2, 4] was 98* % and the “Percentage Disease Control, Test C” value (Septoria nodorum; [3]) was 99%. The “Percentage Disease Control, Test D” value (Septoria tritici; [4]) was 97* %, the “Percentage Disease Control, Test E” value (Fusarium graminearum; [3]) was 0% and the “Percentage Disease Control, Test F” value (Botrytis cinerea; [3]) was 0%. The “Percentage Disease Control, Test H” value (Alternaria solani; [3]) was 0%.

`COC(=O)NCc1cc(C(C)=NOCC(C)[Si](C)(C)C)ccc1Cl` (centres unmarked) [Compound 2, methyl N-[[2-chloro-5-[1-[[2-(trimethylsilyl)propoxy]imino]ethyl]phenyl]-methyl]carbamate] was tested, and the “Percentage Disease Control, Test A” value ([1]; 200 ppm) was 100%, the “Percentage Disease Control, Test B” value ([2]; 200 ppm) was 100% and the “Percentage Disease Control, Test C” value (Septoria nodorum; 200 ppm) was 99%. The “Percentage Disease Control, Test D” value (Septoria tritici; 40 ppm (*)) was 91* %, the “Percentage Disease Control, Test E” value (Fusarium graminearum; 200 ppm) was 100% and the “Percentage Disease Control, Test F” value (Botrytis cinerea; 200 ppm) was 0%. The “Percentage Disease Control, Test I” value (Rhizoctonia oryzae; 200 ppm) was 0%, the “Percentage Disease Control, Test J” value (Phytophthora infestans; 200 ppm) was 0% and the “Percentage Disease Control, Test K” value (Plasmopara viticola; 200 ppm) was 70%. The “Percentage Disease Control, Test L” value (Pythium aphanidermatum; 200 ppm) was 0%.
